Test results from US20230159510A1, “NOVEL PRMT5 INHIBITORS” (AMGEN INC., priority 2020, published 2023).

What was measured:
HCT116 WT cells = experiment: HCT116 proliferation assay, WT cells (CellTiter-Glo, 6 days); format: cell-based; details: Homo sapiens, HCT-116, 144 h, read-out: Prolif_HCT116-WT IC50
Method in brief: (§1)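 RPMI 1640/10% FBS; overnight attachment at 37° C, 5% CO2; 8–9-pt 1:3 titration, top 1 or 10 µM; DMSO ctrl; luminescence readout.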

HCT116 MTAP null cells = experiment: HCT116 proliferation assay, MTAP null cells (CellTiter-Glo, 6 days); format: cell-based; details: HCT116-MTAP null, 144 h, read-out: Protif_ HCT116-MTAP null IC50
Method in brief: as §1

Compound | IC50 (HCT116 WT cells) [µM] | IC50 (HCT116 MTAP null cells) [µM]
N#CC[C@@H](C1CC1)N(Cc1ccc(C#N)cn1)C(=O)c1ccc2nc(N)c(Br)cc2c1 [Example 776, (S)-2-amino-3-bromo-N-(2-cyano-1-cyclopropylethyl)-N-((5-cyanopyridin-2-yl)methyl)quinoline-6-carboxamide] | 7.23 | 0.195
C[C@H](c1ncccn1)N(Cc1cc2c(cn1)OCCC2)C(=O)c1ccc2nc(N)c(Br)cc2c1 [Example 777, (R)-2-amino-3-bromo-N-((3,4-dihydro-2H-pyrano[2,3-c]pyridin-6-yl)methyl)-N-(1-(pyrimidin-2-yl)ethyl)quinoline-6-carboxamide] | > 10 | 0.372
COC[C@@H](C)N(Cc1ccc(OC)nn1)C(=O)c1ccc2nc(N)c(C)cc2c1 [Example 789, 2-amino-N-((2R)-1-methoxy-2-propanyl)-N-((6-methoxy-3-pyridazinyl)methyl)-3-methyl-6-quinolinecarboxamide] | 6.15 | 0.162
C[C@H](c1ncccn1)N(Cc1ccc(OCC(F)(F)F)nn1)C(=O)c1cnc2nc(N)c(Br)cc2c1 [Example 793, (R)-7-amino-6-bromo-N-(1-(pyrimidin-2-yl)ethyl)-N-((6-(2,2,2-trifluoroethoxy)pyridazin-3-yl)methyl)-1,8-naphthyridine-3-carboxamide] | > 10 | 0.783
Cc1nc(CN(C(=O)c2ccc3nc(N)c(Br)cc3c2)[C@H](C)c2ncccn2)ccc1C#N [Example 796, (R)-2-amino-3-bromo-N-((5-cyano-6-methylpyridin-2-yl)methyl)-N-(1-(pyrimidin-2-yl)ethyl)quinoline-6-carboxamide] | > 10 | 0.308
Cc1cc2cc(C(=O)N(Cc3ccc(C(C)(C)O)cn3)[C@H](C)c3ncccn3)ccc2nc1N [Example 801, 2-amino-N-((5-(2-hydroxy-2-propanyl)-2-pyridinyl)methyl)-3-methyl-N-((1R)-1-(2-pyrimidinyl)ethyl)-6-quinolinecarboxamide] | > 10 | 0.533
Cc1cc2cc(C(=O)N(Cc3ccc(C(F)(F)F)cn3)Cc3ncccc3F)c(Cl)cc2nc1N [Example 804, 2-amino-7-chloro-N-((3-fluoro-2-pyridinyl)methyl)-3-methyl-N-((5-(trifluoromethyl)-2-pyridinyl)methyl)-6-quinolinecarboxamide] | 5.77 | 0.226
Cc1cc2cc(C(=O)N(Cc3ccc(C(F)(F)F)cn3)C(C)c3cccc(C#N)n3)ccc2nc1N (stereo not shown) [Example 806, 2-amino-N-(1-(6-cyanopyridin-2-yl)ethyl)-3-methyl-N-((5-(trifluoromethyl)pyridin-2-yl)methyl) quinoline-6-carboxamide] | 6.8 | 0.552
C[C@H](c1ncccn1)N(Cc1ccc(C(F)(F)F)nn1)C(=O)c1cnc2nc(N)c(I)cc2c1 [Example 808, (R)-7-amino-6-iodo-N-(1-(pyrimidin-2-yl)ethyl)-N-((6-(trifluoromethyl)pyridazin-3-yl)methyl)-1,8-naphthyridine-3-carboxamide] | 19.9 | 0.454
CNc1ccc(CN(C(=O)c2ccc3nc(N)c(C)cc3c2)[C@H](C)c2ncccc2F)nn1 [Example 824, 2-Amino-N-((1R)-1-(3-fluoro-2-pyridinyl)ethyl)-3-methyl-N-((6-(methylamino)-3-pyridazinyl)methyl)-6-quinolinecarboxamide] | > 10 | 0.607
N#Cc1ccc(CN(C(=O)c2ccc3nc(N)c(Br)cc3c2)C2CCCC2C#N)nc1 (stereo not shown) [Example 827, 2-amino-3-bromo-N-(2-cyanocyclopentyl)-N-((5-cyanopyridin-2-yl)methyl)quinoline-6-carboxamide] | > 1 | 0.88
N#CC1(CN(Cc2ccc(C(F)(F)F)cn2)C(=O)c2ccc3nc(N)c(Br)cc3c2)CC1 [Example 828, 2-amino-3-bromo-N-((1-cyanocyclopropyl)methyl)-N-((5-(trifluoromethyl)pyridin-2-yl)methyl)quinoline-6-carboxamide] | > 10 | 0.91
CO[C@@H]1COCC[C@H]1N(Cc1ccc(C(F)(F)F)cn1)C(=O)c1ccc2nc(N)c(Br)cc2c1 [Example 829, 2-amino-3-bromo-N-((3S,4R)-3-methoxytetrahydro-2H-pyran-4-yl)-N-((5-(trifluoromethyl)pyridin-2-yl)methyl) quinoline-6-carboxamide] | > 10 | 0.84
CC1COCCC1N(Cc1ccc(C(F)(F)F)cn1)C(=O)c1ccc2nc(N)c(Br)cc2c1 (stereo not shown) [Example 830, 2-amino-3-bromo-N-(3-methyltetrahydro-2H-pyran-4-yl)-N-((5-(trifluoromethyl)pyridin-2-yl)methyl)quinoline-6-carboxamide] | > 10 | 0.38
CC1CCCC1N(Cc1ccc(C(F)(F)F)cn1)C(=O)c1ccc2nc(N)c(Br)cc2c1 (stereo not shown) [Example 831, 2-amino-3-bromo-N-(2-methylcyclopentyl)-N-((5-(trifluoromethyl)pyridin-2-yl)methyl)quinoline-6-carboxamide] | > 10 | 0.44

Further lines, results first:

IC50 (HCT116 WT cells) [µM] | IC50 (HCT116 MTAP null cells) [µM] | Compound
2.05 | 0.072 | N#CC[C@@H](C1CC1)N(Cc1ccc(C(F)(F)F)cn1)C(=O)c1ccc2nc(N)c(Br)cc2c1 [Example 778, (S)-2-amino-3-bromo-N-(2-cyano-1-cyclopropylethyl)-N-((5-(trifluoromethyl)pyridin-2-yl)methyl)quinoline-6-carboxamide]
5.16 | 0.156 | Cc1cc2cc(C(=O)N(Cc3ccc(OCC(F)(F)F)nn3)[C@H](C)c3ncccn3)ccc2nc1N [Example 790, (R)-2-amino-3-methyl-N-(1-(pyrimidin-2-yl)ethyl)-N-((6-(2,2,2-trifluoroethoxy)pyridazin-3-yl)methyl) quinoline-6-carboxamide]
1.72 | 0.06 | Cc1cc2cc(C(=O)N(Cc3ccc(OC(F)(F)F)nn3)C(C)c3ncccn3)ccc2nc1N (stereo not shown) [Example 791, 2-amino-3-methyl-N-(1-(pyrimidin-2-yl)ethyl)-N-((6-(trifluoromethoxy)pyridazin-3-yl)methyl)quinoline-6-carboxamide]
3.84 | 0.119 | Cc1cc2cc(C(=O)N(Cc3cc4ccccc4cn3)C(C)c3ncccn3)ccc2nc1N (stereo not shown) [Example 792, 2-amino-N-(isoquinolin-3-ylmethyl)-3-methyl-N-(1-(pyrimidin-2-yl)ethyl)quinoline-6-carboxamide]
1.39 | 0.056 | Cc1cc2cc(C(=O)N(Cc3ccc(C(F)(F)F)cn3)C(C)c3ncon3)ccc2nc1N (stereo not shown) [Example 795, N-(1-(1,2,4-oxadiazol-3-yl)ethyl)-2-amino-3-methyl-N-((5-(trifluoromethyl)pyridin-2-yl)methyl)quinoline-6-carboxamide]
3.82 | 0.229 | Cc1cc2cc(C(=O)N(Cc3ccc(C(F)(F)F)cn3)C(C)c3ccnc(F)c3)ccc2nc1N (stereo not shown) [Example 797, 2-amino-N-(1-(2-fluoropyridin-4-yl)ethyl)-3-methyl-N-((5-(trifluoromethyl)pyridin-2-yl)methyl)quinoline-6-carboxamide]
0.301 | 0.013 | Cc1cc2cc(C(=O)N(Cc3ccc(C(F)(F)F)cn3)[C@H](C)c3cccc(F)n3)ccc2nc1N [Example 799, (R)-2-amino-N-(1-(6-fluoropyridin-2-yl)ethyl)-3-methyl-N-((5-(trifluoromethyl)pyridin-2-yl)methyl)quinoline-6-carboxamide]
2.79 | 0.173 | C[C@H](c1cccc(F)n1)N(Cc1ccc(C(F)(F)F)cn1)C(=O)c1cnc2nc(N)c(Br)cc2c1 [Example 800, (R)-7-amino-6-bromo-N-(1-(6-fluoropyridin-2-yl)ethyl)-N-((5-(trifluoromethyl)pyridin-2-yl)methyl)-1,8-naphthyridine-3-carboxamide]
2 | 0.144 | Cc1cc2cc(C(=O)N(Cc3ccc(C(F)(F)F)cn3)C(c3ncccn3)C(C)C)ccc2nc1N (stereo not shown) [Example 805, 2-amino-3-methyl-N-(2-methyl-1-(pyrimidin-2-yl)propyl)-N-((5-(trifluoromethyl)pyridin-2-yl)methyl)quinoline-6-carboxamide]
0.764 | 0.075 | Cc1cc2cc(C(=O)N(Cc3cc(Cl)c(C#N)cn3)[C@H](C)c3ncccn3)ccc2nc1N [Example 807, (R)-2-amino-N-((4-chloro-5-cyanopyridin-2-yl)methyl)-3-methyl-N-(1-(pyrimidin-2-yl)ethyl)quinoline-6-carboxamide]
0.368 | 0.018 | Cc1cc2cc(C(=O)N(Cc3ccc(C(F)(F)F)cn3)[C@@H]3CCC[C@H]3OC(F)F)ccc2nc1N [Example 816, 2-amino-N-((1R,2R)-2-(difluoromethoxy)cyclopentyl)-3-methyl-N-((5-(trifluoromethyl)pyridin-2-yl)methyl)quinoline-6-carboxamide]
0.371 | 0.019 | Cc1cc2cc(C(=O)N(Cc3ccc(C4CC4)cn3)[C@H](C)c3ncccn3)ccc2nc1N [Example 821, (R)-2-amino-N-((5-cyclopropylpyridin-2-yl)methyl)-3-methyl-N-(1-(pyrimidin-2-yl)ethyl)quinoline-6-carboxamide]
0.763 | 0.045 | COC(=O)N1CCC(c2ccc(CN(C(=O)c3ccc4nc(N)c(C)cc4c3)[C@H](C)c3ncccn3)nc2)CC1 [Example 822, methyl (R)-4-(6-((2-amino-3-methyl-N-(1-(pyrimidin-2-yl)ethyl)quinoline-6-carboxamido)methyl)pyridin-3-yl)piperidine-1-carboxylate]
0.695 | 0.041 | Cc1cc2cc(C(=O)N(Cc3ccc(N4CCOCC4)nn3)[C@H](C)c3ncccc3F)ccc2nc1N [Example 823, 2-Amino-N-((1R)-1-(3-fluoro-2-pyridinyl)ethyl)-3-methyl-N-((6-(4-morpholinyl)-3-pyridazinyl)methyl)-6-quinolinecarboxamide]
